Test results: patent US20180023041A1, “CLEANING COMPOSITIONS CONTAINING A DIAMINOSTILBENE BRIGHTENER” (The Procter & Gamble Company, priority 2016, published 2018)

Experiment: Dissolution of brightener from granular laundry detergent formulations in hardness water, UV-Vis absorbance of filtered solution at 350 nm
Assay type: physicochemical
Conditions: in comparison with the control formulation with LAS only; in words
Method: The total surfactant levels for Formulations A-H are maintained the same at 20 wt %.
Prepare 10 gpg hardness water (Ca:Mg=3:1) and place 1L of such hardness water in each of 8 beakers separately. Weight a 6.12g sample from each of the Formulations A-H hereabove respectively, and put the samples into beakers with hardness water on the maganetic stirrers. Stir for 15 mins to dissolve the sample.
Take about 8 ml solution by using a 10m1 injection syringe. Install a 0.45pm filter on the injection syringe for filtering the solution when it is injected out of the syringe. Inject the filtered solution into a sample cuvette of the UV-Vis spectrophotometer. Place the sample cuvette in a measuring position of the UV-Vis spectrophotometer. Read and record the absorbance (ABS) of solutions at a UV wavelength of 350nm respectively.

dissolution of the brightener in a surfactant system containing LAS, mid-cut AS, and soap: much less
Compound: O=S(=O)([O-])c1ccccc1C=Cc1ccc(-c2ccc(C=Cc3ccccc3S(=O)(=O)[O-])cc2)cc1.[Na+].[Na+] [Florescent Brigthener 351, disodium 2,2′-([1,1′-biphenyl]-4,4′-diyldivinylene)bis(benzenesulphonate)]
